Measurements taken from patent US7557098B2, “1-aryl- or 1-alkylsulfonyl-heterocyclylbenzazoles as 5-hydroxytryptamine-6 ligands” (Wyeth, priority 2000, dated 2009).
Where a name gives a salt, the structure may show the parent alone. Read-outs that look alike come from different tables or passages of the source.

How the values were obtained:
[1] = biological target: T1, human cloned 5-HT6 receptors (Homo sapiens, UniProt P50406); test: 5-HT6 binding affinity, [3H]-LSD displacement on membranes of Hela cells expressing human cloned 5-HT6 receptors
T1 construct: expressed in transfected cells; host or cells: Hela cells

[2] = [3H]-LSD 3.0 nM, Hela cell membranes, 120 min at room temperature, read-out: 5-HT6 binding Ki

T1 sequence (P50406 whole entry): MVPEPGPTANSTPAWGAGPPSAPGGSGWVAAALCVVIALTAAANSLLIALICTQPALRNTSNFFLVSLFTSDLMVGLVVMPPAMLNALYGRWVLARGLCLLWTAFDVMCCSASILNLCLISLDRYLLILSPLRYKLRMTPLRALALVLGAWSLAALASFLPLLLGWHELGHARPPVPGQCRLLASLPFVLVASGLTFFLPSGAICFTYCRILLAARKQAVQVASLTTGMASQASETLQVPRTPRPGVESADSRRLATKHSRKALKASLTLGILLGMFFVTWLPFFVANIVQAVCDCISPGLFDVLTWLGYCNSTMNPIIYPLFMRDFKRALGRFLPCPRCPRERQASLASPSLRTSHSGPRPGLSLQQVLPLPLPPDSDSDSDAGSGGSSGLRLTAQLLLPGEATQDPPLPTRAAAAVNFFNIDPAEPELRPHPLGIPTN

| Structure (SMILES) | Ki [1] [nM] | Ki [1, 2] [nM] | melting point [°C] |
| --- | --- | --- | --- |
| O=S(=O)(c1ccccc1Br)n1ccc2c(N3CCNCC3)cccc21 [Example 2] | 2 |  |  |
| O=S(=O)(c1c(Cl)nc2sccn12)n1ccc2c(N3CCNCC3)cccc21 [Example 3] | 1 |  |  |
| Nc1ccc(S(=O)(=O)n2ccc3c(N4CCNCC4)cccc32)cc1 [Example 5] | 1 |  |  |
| O=S(=O)(c1ccccc1)n1ccc2c(N3CCN(C4=NCCN4)CC3)cccc21 [Example 14, 4-[4-(4,5-Dihydro-1H-imidazol-2-yl)-piperazin-1-yl]-1-(phenylsulfonyl)-1H-indole] | 24 |  |  |
| Nc1ccc(S(=O)(=O)n2ccc3c(N4CCN(C5=NCCN5)CC4)cccc32)cc1 [Example 18] |  | 6 |  |
| O=S(=O)(c1c(Cl)nc2sccn12)n1ccc2c(N3CCN(Cc4ccccc4)CC3)cccc21 [Example 27] |  | 56 |  |
| CC(=O)N1CCN(c2cccc3c2ccn3S(=O)(=O)c2c(Cl)nc3sccn23)CC1 [Example 30] |  | 220 |  |
| COc1ccc(S(=O)(=O)n2ccc3c(N4CCN(Cc5cccc([N+](=O)[O-])c5)CC4)cccc32)cc1OC [Example 33] |  | 45 |  |
| Nc1ccc(S(=O)(=O)n2ccc3c(N4CCN(Cc5ccccc5)CC4)cccc32)cc1 [Example 35] |  | 15 |  |
| CN1CCN(c2cccc3c2ccn3S(=O)(=O)c2ccc(N)cc2)CC1 [Example 36] |  | 3 |  |
| Nc1ccc(S(=O)(=O)n2ccc3c(N4CCN(Cc5ccc(Cl)s5)CC4)cccc32)cc1 [Example 37] |  | 59 |  |
| Nc1ccc(S(=O)(=O)n2ccc3c(N4CCN(Cc5cccc([N+](=O)[O-])c5)CC4)cccc32)cc1 [Example 38] |  | 5 |  |
| O=S(=O)(c1ccccc1)n1ccc2c(N3CCN(Cc4ccncc4)CC3)cccc21 [Example 40] |  | 4 |  |
| O=S(=O)(c1ccccc1)n1ccc2c(N3CCN(Cc4cccnc4)CC3)cccc21 [Example 41] |  | 7 |  |
| COc1cccc(CN2CCN(c3cccc4c3ccn4S(=O)(=O)c3ccccc3Br)CC2)c1 [Example 42] |  | 4 |  |
| O=S(=O)(c1ccccc1Br)n1ccc2c(N3CCN(Cc4ccncc4)CC3)cccc21 [Example 43] |  | 7 |  |
| O=S(=O)(c1ccccc1Br)n1ccc2c(N3CCN(Cc4cccnc4)CC3)cccc21 [Example 44] |  | 1 |  |
| O=S(=O)(c1c(Cl)nc2sccn12)n1ccc2c(N3CCN(Cc4ccncc4)CC3)cccc21 [Example 46] |  | 5 |  |
| O=S(=O)(c1c(Cl)nc2sccn12)n1ccc2c(N3CCN(Cc4cccnc4)CC3)cccc21 [Example 47] |  | 6 |  |
| COc1cccc(CN2CCN(c3cccc4c3ccn4S(=O)(=O)c3ccc(OC)c(OC)c3)CC2)c1 [Example 48] |  | 14 |  |
| COc1ccc(S(=O)(=O)n2ccc3c(N4CCN(Cc5ccncc5)CC4)cccc32)cc1OC [Example 49] |  | 10 |  |
| COc1ccc(S(=O)(=O)n2ccc3c(N4CCN(Cc5cccnc5)CC4)cccc32)cc1OC [Example 50] |  | 17 |  |
| COc1cccc(CN2CCN(c3cccc4c3ccn4S(=O)(=O)c3ccc(N)cc3)CC2)c1 [Example 51] |  | 7 |  |
| Nc1ccc(S(=O)(=O)n2ccc3c(N4CCN(Cc5ccncc5)CC4)cccc32)cc1 [Example 52] |  | 25 |  |
| Nc1ccc(S(=O)(=O)n2ccc3c(N4CCN(Cc5cccnc5)CC4)cccc32)cc1 [Example 53] |  | 4 |  |

| Structure (SMILES) | Ki [1] [nM] | Ki [1, 2] [nM] | melting point [°C] |
| --- | --- | --- | --- |
| O=S(=O)(c1ccccc1)n1ncc2c(N3CCN(Cc4ccccc4)CC3)cccc21 [Example 57, 4-(4-Benzylpiperazin-1-yl)-1-(phenylsulfonyl)-1H-indazole hydrochloride] |  | 14 |  |
| O=S(=O)(c1ccccc1)n1ncc2c(N3CCNCC3)cccc21 [Example 58, 1-(Phenylsulfonyl)-4-(1-piperazinyl)-1H-indazole hydrochloride] | 0.3 |  |  |
| O=S(=O)(c1ccccc1)n1ncc2c(N3CCN(CCc4ccccc4)CC3)cccc21 [Example 59, 4-[4-(2-phenylethyl)piperazin-1-yl]-1-(phenylsulfonyl)-1H-indazole hydrochloride] |  | 1 |  |
| O=S(=O)(c1ccccc1)n1ncc2c(N3CCN(CCOc4ccc(F)cc4)CC3)cccc21 [Example 60] |  | 306 | 184 to 186 |
| O=C(CCCN1CCN(c2cccc3c2cnn3S(=O)(=O)c2ccccc2)CC1)c1ccc(F)cc1 [Example 61] |  | 3 |  |
| O=C(CN1CCN(c2cccc3c2cnn3S(=O)(=O)c2ccccc2)CC1)c1ccccc1 [Example 62] |  | 12 | 202 to 205 |
| O=S(=O)(c1ccccc1)n1ncc2c(N3CCN(CCCc4ccccc4)CC3)cccc21 [Example 63] |  | 6 | 188 to 190 |
| CCCN1CCN(c2cccc3c2cnn3S(=O)(=O)c2ccccc2)CC1 [Example 64] |  | 2 | 258 to 260 |
| O=S(=O)(C=Cc1ccccc1)n1ncc2c(N3CCN(Cc4ccccc4)CC3)cccc21 [Example 65] |  | 172 | 233 to 235 |
| O=S(=O)(c1ccc(F)cc1)n1ncc2c(N3CCN(Cc4ccccc4)CC3)cccc21 [Example 66] |  | 84 | 240 to 241 |
| O=S(=O)(c1ccc(Cl)cc1)n1ncc2c(N3CCN(Cc4ccccc4)CC3)cccc21 [Example 67] |  | 87 | 238 to 239 |
| COc1ccc(S(=O)(=O)n2ncc3c(N4CCN(Cc5ccccc5)CC4)cccc32)cc1 [Example 69] |  | 116 | 206 to 209 |
| O=S(=O)(c1ccc(OC(F)(F)F)cc1)n1ncc2c(N3CCN(Cc4ccccc4)CC3)cccc21 [Example 70] |  | 251 | 229 to 231 |
| O=S(=O)(c1cc(Cl)c(Cl)s1)n1ncc2c(N3CCN(Cc4ccccc4)CC3)cccc21 [Example 71] |  | 81 | 235 to 237 |
| Cc1ccc(S(=O)(=O)n2ncc3c(N4CCN(Cc5ccccc5)CC4)cccc32)cc1 [Example 72] |  | 56 | 215 to 217 |
| Nc1ccc(S(=O)(=O)n2ccc3cc(N4CCNCC4)ccc32)cc1 [Example 73, 1-(4-Aminophenylsulfonyl)-5-piperazin-1-yl-1H-indole hydrochloride] |  | 34 |  |
| O=S(=O)(c1ccc(Br)cc1)n1ncc2cc(N3CCNCC3)ccc21 [Example 79] |  | 19 |  |
| O=S(=O)(c1ccc(Br)s1)n1ncc2cc(N3CCNCC3)ccc21 [Example 81] | 44 |  |  |
| CCCCOc1ccc(S(=O)(=O)n2ccc3cc(N4CCNCC4)ccc32)cc1 [Example 83] |  | 38 |  |
| Cc1nn(C)c(Cl)c1S(=O)(=O)n1ccc2cc(N3CCNCC3)ccc21 [Example 86] |  | 44 |  |
| Cc1c(S(=O)(=O)n2ncc3ccc(N4CCNCC4)cc32)sc2ccc(Cl)cc12 [Example 89] |  | 24 |  |
| O=S(=O)(c1cc(Cl)c(Cl)s1)n1ncc2cc(N3CCNCC3)ccc21 [Example 90] |  | 30 |  |
| O=S(=O)(c1cc(Cl)c(Cl)s1)n1ncc2ccc(N3CCNCC3)cc21 [Example 91] |  | 6 |  |
| O=S(=O)(c1ccc2ccccc2c1)n1ncc2ccc(N3CCNCC3)cc21 [Example 96] |  | 37 |  |
| O=S(=O)(c1ccc(I)cc1)n1ncc2cc(N3CCNCC3)ccc21 [Example 101] |  | 18 |  |
